# How the values were obtained:
# [1] = test system: Wnt pathway activity (SW480 colon carcinoma cells stably expressing the Sp5-Luc reporter); assay: Wnt pathway activity screening assay (Sp5-Luc reporter gene assay); details: Homo sapiens, SW480, Table 4; SW480 cells stably expressing Sp5-Luc reporter, 10-point dose-response from 10 μM, 36 to 48 hours
# CLK2 kinase = CLK2 kinase (Homo sapiens, UniProt P49760); assay: CLK2 kinase activity assay (Z-lyte FRET); type: biochemical; details: Z-lyte Ser/Thr 6 peptide, 60 μM ATP, 1 h at room temperature;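 note: FRET read-out as coumarin to fluorescein emission ratio, unphosphorylated peptide as 0% and phosphorylated peptide as 100% controls, duplicate reactions, non-linear regression fit of dose-response curves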
# [2] = test system: MMP-3 levels in supernatant of chondrocytes stimulated with IL1-β; assay: Chondrocyte protection assay compound screening (MMP-3 LANCE Ultra); type: cell-based, human; details: Homo sapiens, Chondrocyte, IL1-β 10 ng/mL overnight, 11-point curves from 3 μM to 0.05 nM; for Emax: read-out: Maximum % Inhibition
# Method in brief: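 Primary human chondrocytes (passage 2–5) in differentiation medium were stimulated with 10 ng/mL IL1-β for an overnight incubation at 37 °C. MMP-3 in 1:7-diluted supernatant was read by TR-FRET immunoassay against a standard curve, normalised to IL1-β-stimulated wells; EC50 and maximum % inhibition came from nonlinear regression.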
# CLK3 kinase = CLK3 kinase (Homo sapiens, UniProt P49761); assay: CLK3 kinase activity assay (Z-lyte FRET); type: biochemical; details: Z-lyte Ser/Thr 18 peptide, 156 μM ATP, 1 h at room temperature;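 note: kinase activity read as coumarin/fluorescein emission ratio by FRET, unphosphorylated peptide as 0% and phosphorylated peptide as 100% control, values from non-linear regression of dose-response curves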
# Chain of CLK3 kinase (P49761 whole entry): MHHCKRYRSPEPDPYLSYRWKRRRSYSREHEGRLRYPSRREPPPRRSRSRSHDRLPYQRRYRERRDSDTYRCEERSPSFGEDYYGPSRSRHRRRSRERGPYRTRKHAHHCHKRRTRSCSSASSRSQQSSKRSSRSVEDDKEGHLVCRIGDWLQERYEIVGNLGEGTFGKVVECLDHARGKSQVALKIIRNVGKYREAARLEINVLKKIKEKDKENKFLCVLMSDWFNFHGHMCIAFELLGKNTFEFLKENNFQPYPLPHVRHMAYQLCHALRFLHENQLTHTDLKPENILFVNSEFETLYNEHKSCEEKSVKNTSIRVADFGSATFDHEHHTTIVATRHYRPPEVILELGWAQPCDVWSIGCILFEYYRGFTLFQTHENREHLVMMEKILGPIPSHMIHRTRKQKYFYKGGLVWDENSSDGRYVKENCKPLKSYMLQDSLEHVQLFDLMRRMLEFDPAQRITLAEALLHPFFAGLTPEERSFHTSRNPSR
# Procedure: This is a non-radioactive assay using fluorescence resonance energy transfer (FRET) between coumarin and fluorescein to detect kinase activity which is represented as a ratio of coumarin emission/fluorescein emission.
# The mixture was allowed to incubate with the representative compounds for one hour at room temperature. All reactions were performed in duplicate. Unphosphorylated (“0% Control”) and phosphorylated (“100% control”) forms of Ser/Thr 18 served as control reactions. Additionally, an 11-point dose-response curve of Staurosporine (1 μM top) was run to serve as a positive compound control.
# After incubation, Development Reagent A was diluted in Development Buffer then added to the reaction and allowed to further incubate for one hour at room temperature.
# Dose-response curves were generated and inhibitory concentration (IC50) values were calculated using non-linear regression curve fit in the Dotmatics' Studies Software (Bishops Stortford, UK).
# Chain of CLK2 kinase (P49760 whole entry): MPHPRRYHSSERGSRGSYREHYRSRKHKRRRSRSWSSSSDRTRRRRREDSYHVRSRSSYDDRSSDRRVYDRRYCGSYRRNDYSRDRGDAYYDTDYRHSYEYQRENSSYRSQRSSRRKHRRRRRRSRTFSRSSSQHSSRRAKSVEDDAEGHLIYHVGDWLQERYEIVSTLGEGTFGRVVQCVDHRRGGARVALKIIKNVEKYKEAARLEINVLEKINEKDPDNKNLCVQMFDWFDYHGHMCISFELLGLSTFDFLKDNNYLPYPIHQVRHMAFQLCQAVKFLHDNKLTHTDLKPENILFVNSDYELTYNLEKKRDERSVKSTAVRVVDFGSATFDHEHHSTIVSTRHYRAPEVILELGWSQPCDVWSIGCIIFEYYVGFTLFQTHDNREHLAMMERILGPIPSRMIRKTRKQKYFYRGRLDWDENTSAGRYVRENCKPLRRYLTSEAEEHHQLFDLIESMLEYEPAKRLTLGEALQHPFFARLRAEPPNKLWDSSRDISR
Compound,EC50 [1] [nM],EC50 (CLK2 kinase) [nM],EC50 (CLK3 kinase) [nM],EC50 [2] [nM],Emax [2] [%]
CC(C)NC(=O)c1n[nH]c2ccc(-c3cncc(NC4CCNCC4)n3)cc12 [compound 105],2400,1,2440,2740,53.1
CN1CCC(Nc2ccc(NC(=O)c3n[nH]c4cc(F)c(-c5cnn(C)c5)cc34)cn2)CC1 [compound 109],230,1,79,1160,100
CN1CCC(Oc2ccc(NC(=O)c3n[nH]c4cc(F)c(-c5cnn(C)c5)cc34)cn2)CC1 [compound 110],120,1,48,1080,87.2
CN1CCC(Oc2ncc(NC(=O)c3n[nH]c4cc(F)c(-c5cnn(C)c5)cc34)cc2F)CC1 [compound 111],1150,1,89,12.6,76.2
Cn1cc(-c2cc3c(C(=O)Nc4ccc5c(c4)CNC5)n[nH]c3cc2F)cn1 [compound 112],793,1,116,1200,88.3
Cc1ncc(NC(=O)c2n[nH]c3ccc(-c4cnn(C5CCN(C)CC5)c4)cc23)s1 [compound 114],95,1,48,≥ 3000,62.8
O=C(Nc1ccc(OC(F)F)cc1)c1n[nH]c2ccc(-c3cnc4n3CCNC4)cc12 [compound 116],684,1,391,13,61.2
CC(C)CC(=O)Nc1cncc(-c2cnc3[nH]nc(-c4nc5c(-c6cccc(F)c6)cncc5[nH]4)c3c2)c1 [compound 125],0.6,1,57,≥ 3000,
CCN(C)Cc1cncc(-c2cnc3[nH]nc(-c4nc5c(-c6cccc(F)c6)cncc5[nH]4)c3c2)c1 [compound 140],643,2,22,0.8,76.4
Fc1cccc(-c2cncc3[nH]c(-c4n[nH]c5cnc(-c6cncc(OC7CCNCC7)c6)cc45)nc23)c1 [compound 152],> 10000,1,33,1710,31.8
CC(C)(C)C(=O)Nc1cncc(-c2ccc3[nH]nc(-c4nc5c(-c6cccnc6)cncc5[nH]4)c3c2)c1 [compound 188],85.4,3,23,1100,100
O=C(Nc1cncc(-c2ccc3[nH]nc(-c4nc5c(-c6cccnc6)cncc5[nH]4)c3c2)c1)c1ccccc1 [compound 192],> 10000,5,17,1.9,95.5
CCNCc1cncc(-c2ccc3[nH]nc(-c4nc5c(-c6ccccn6)nccc5[nH]4)c3c2)c1 [compound 199],2130,2,136,2.4,80.9
NC1CN(c2cncc(-c3ccc4[nH]nc(-c5nc6ccncc6[nH]5)c4c3)c2)C1 [compound 205],344,1,182,20.8,61.5
Cc1cn(-c2cncc3[nH]c(-c4n[nH]c5ccc(-c6cncc(NC(=O)CC(C)C)c6)cc45)nc23)cn1 [compound 225],4570,2,16,845,89.2
FC1(F)CCN(Cc2cncc(-c3cnc4[nH]nc(-c5nc6c(-c7ccoc7)nccc6[nH]5)c4c3)c2)C1 [compound 241],162,4,34,0.1,87.1
O=C(CC1CCNCC1)Nc1cncc(-c2ccc3[nH]nc(-c4nc5c(-c6ccsc6)nccc5[nH]4)c3n2)c1 [compound 248],> 10000,1,66,≥ 3000,40.7
Fc1ccc(-c2cncc3[nH]c(-c4n[nH]c5cnc(-c6cncc(CN7CCCC7)c6)cc45)nc23)s1 [compound 264],470,2,35,≥ 3000,81
Cc1ncc(-c2ccc3[nH]nc(-c4nc5c(-c6cc(F)cc(NCCN(C)C)c6)ccnc5[nH]4)c3n2)n1C [compound 287],620,4,44,12.8,74.2
Cc1ccncc1-c1cc2c(-c3nc4c(-c5cc(F)cc(CNS(C)(=O)=O)c5)cncc4[nH]3)n[nH]c2cn1 [compound 290],96.6,2,17,604,
CN1CCC(Oc2ccc3[nH]c(-c4n[nH]c5ccc(-c6cnn(C)c6)cc45)nc3c2)CC1 [compound 299],18.3,1,29,170,100
O=C(Nc1cncc(-c2ccc3[nH]nc(-c4cc5cnccc5[nH]4)c3c2)c1)C1CCCCC1 [compound 431],285,1,18,6.7,100
CC#CC(=O)Nc1cc2cc(-c3cnn(C)c3)ccc2cn1 [compound 539],513,7,123,32.8,42.3

# The next lines start with results.
EC50 [1] [nM],EC50 (CLK2 kinase) [nM],EC50 (CLK3 kinase) [nM],Compound,EC50 [2] [nM],Emax [2] [%]
1820,6,1670,O=C(NCc1cc(F)cc(F)c1)c1n[nH]c2ccc(-c3cncc(CN4CCCCC4)c3)cc12 [compound 77],≥ 3000,84.8
500,5,73,O=C(Nc1ccc(OC(CO)CO)nc1)c1n[nH]c2ccc(-c3cncc(CN4CCCCC4)c3)cc12 [compound 83],303,
13,1,11,NC(=O)c1ccc(NC(=O)c2n[nH]c3ccc(-c4cncc(CN5CCCCC5)c4)cc23)cn1 [compound 87],2220,100
30,1,12,O=C(Nc1ccc(C(=O)N2CCCC2)nc1)c1n[nH]c2ccc(-c3cncc(CN4CCCCC4)c3)cc12 [compound 88],≥ 3000,100
27,1,14,CS(=O)(=O)c1ccc(NC(=O)c2n[nH]c3ccc(-c4cncc(CN5CCCCC5)c4)cc23)cn1 [compound 89],5.5,79.8
1500,1,39,O=C(Nc1ccc(N2CC(CO)(CO)C2)nc1)c1n[nH]c2ccc(-c3cncc(CN4CCCCC4)c3)cc12 [compound 90],6.7,29.7
30,1,17,Nc1ncc(NC(=O)c2n[nH]c3ccc(-c4cncc(CN5CCCCC5)c4)cc23)cn1 [compound 96],180,100
430,2,135,O=C(Nc1cnccn1)c1n[nH]c2ccc(-c3cncc(CN4CCCCCC4)c3)cc12 [compound 99],≥ 3000,39.6
210,1,37,O=C(Nc1cccnc1)c1n[nH]c2ccc(-c3cncc(CN4CCS(=O)(=O)CC4)c3)cc12 [compound 100],616,8.6
1310,2,1430,O=C(Nc1ccc(CN2CCCC2)cc1)c1n[nH]c2ccc(-c3cncnc3)cc12 [compound 103],307,36.3
1660,2,378,O=C(Nc1ccc(CN2CCCC2)cc1)c1n[nH]c2ccc(-c3cnccn3)cc12 [compound 104],7.1,72.8
315,1,101,Cn1cc(-c2cc3c(C(=O)Nc4ccc(OCCN5CCCC5)cc4)n[nH]c3cc2F)cn1 [compound 108],≥ 3000,32.1
451,1,133,O=C(Nc1ccc(CN2CCCC2)cc1)c1n[nH]c2ccc(-c3cnn(C4CC4)c3)cc12 [compound 113],≥ 3000,57
645,2,147,Cc1cc(-c2ccc3[nH]nc(C(=O)Nc4ccc(OC5CCN(C)CC5)cc4)c3c2)sn1 [compound 117],44.2,94.4
848,8,601,O=C(Nc1cccnc1)c1n[nH]c2cnc(-c3cncc(CN4CCCCC4)c3)cc12 [compound 118],138,21.1
165,2,19,c1cnc2cc(-c3n[nH]c4ccc(-c5cncc(CN6CCCCC6)c5)cc34)[nH]c2c1 [compound 449],319,100

# — US20230000842A1, “METHODS OF TREATING CARTILAGE DISORDERS THROUGH INHIBITION OF CLK AND DYRK” (SAMUMED, LLC, priority 2019, published 2023)
